Key:
c-Myc = experiment: Expression level of cell proliferation-associated factor mRNA (realtime-PCR), c-Myc; format: in vivo, mouse; details: Min mice, 1000 ppm in feed, GAPDH-normalised, control group = 1.00, n=3
Procedure: (§1) (1) mRNA Extraction from the Intestinal Polyp Part and Non-Polyp Part, and cDNA Synthesis
(§2) TRIsol (Invitrogen) (500 μL) was added to a polyp part and a non-polyp part of small intestine mucosa of mouse of the control group and the 1000 ppm test substance-administering group scraped in Test Example 1. After 100 μL of chloroform was added thereto and mixed therewith, the mixture was centrifuged (12000 rpm for 2 minutes) and the supernatant liquid was recovered therefrom. The recovered supernatant liquid was added 250 μL of ethanol and RNA was extracted therefrom and purified using a column (QIAGEN).
(§3) After DNAse (Invitrogen) treatment, cDNA was prepared from 1 μg of the total RNA using High-Capacity cDNA Reverse Transcription Kits (Applied Biosystems). […]
(§4) Expression level of mRNA of the cell proliferation-associated factors [c-Myc, CDK4 and cyclin D1] was measured by a realtime-PCR method using the cDNA being synthesized from the total RNA extracted in the above (1). With regard to the polyp part, the mRNA expression level only of c-Myc was measured.
(§5) As to the PCR primers for each of the cell proliferation-associated factors, there were used c-Myc [Forward: […] […] Each of the resulted measured values was divided by the measured value of the glyceraldehyde-3-phosphate dehydrogenase (GAPDH) gene which was an internal standard whereupon the relative values were calculated. […]

[1] = Feed and body weight of Min mice during the administration period; format: in vivo, mouse; details: 500 and 1000 ppm in feed for eight weeks versus control group
Procedure: (§6) The experimental animals were randomly classified into a control group, a group to which 500 ppm of a test substance was administered and a group to which 1000 ppm of a test substance was administered. In each group, 10 mice per group were organized in such a manner that average body weight in the group became same. The control group was administered with a basic feed only and each of the 500 ppm test substance-administering group and the 1000 ppm test substance-administering group was administered with a mixed feed of a test substance (Compound 21) in 500 and 1000 ppm concentrations, respectively for eight weeks.

[2] = Evaluation of safety, repeated oral administration to healthy male adults; format: in vivo, human; details: oral 400 mg single dose, 17 administrations over seven days, six cases
Procedure: Eight healthy male adults (21 to 24 years age) (consisting of six cases being administered with the test substance and two cases being administered with the placebo) were used as the subjects and the present compound was orally administered repeatedly to evaluate the safety. A test substance (Compound 21) was orally administered in the single dose of 400 mg in such a manner that, on the first and the seventh day of the administration, once-daily in the morning on an empty stomach and, on the second to the sixth days of the administration, thrice-daily on an empty stomach (at 09:00, 14:00 and 19:00) together with 150 mL of water each (17 administrations in total).

[3] = tested on: intestinal polyps of C57BL/6-Apc^Min/+ mouse (Min mouse); experiment: Evaluation of intestinal polyp formation in Min mice; format: in vivo; details: for Number of intestinal polyp, colon / Number of intestinal polyp, small intestine distal segment / Number of intestinal polyp, small intestine middle segment / Number of intestinal polyp, small intestine proximal segment / Number of intestinal polyp, total: mean
Text: (1) Grouping of Experimental Animals and Administration of a Test Substance
As to an experimental animal, there was used a C57BL/6-Apc^Min/+ mouse (Min mouse) which was a familial adenomatosis coli model. The Min mouse is an Apc (adenomatous polyoisis coli) mutant mouse and an increase in polyp numbers is noted therein with time. It has been also known that the Min mouse is occurred with dyslipidemia in a state of highly oxidative stress. 5-week-old male Min mice were bred and acclimatized in a plastic cage (235×325×170 H mm) (six mice in maximum in a cage) in a laboratory where the temperature, the humidity and the brightness/darkness cycle were set at 24±2° C., 55% and 12 hours, respectively. In the meanwhile, they were freely ingested with filtered water and basic feed (MN-76A, CLEA Japan Inc.).
as §6
(2) Measurement of Numbers of Polyps in the Intestinal Tract
The mice in each group were killed under anesthetization at 13 weeks old and, after laparotomy, the intestinal tract was excised and fixed with formalin. Small intestine was divided into proximal segment (the segment in about 4 cm length from pylorus), middle segment and distal segment, then the polyp numbers in the four segments including colon were counted under a stereomicroscope and the mean value in each group was calculated.

CDK4 = experiment: Expression level of cell proliferation-associated factor mRNA (realtime-PCR), CDK4; format: in vivo, mouse; details: non-polyp part of small intestine mucosa, Min mice, 1000 ppm in feed, GAPDH-normalised, control group = 1.00, n=3
Procedure: as §1, §2, §3, §4, §5

cyclin D1 = experiment: Expression level of cell proliferation-associated factor mRNA (realtime-PCR), cyclin D1; format: in vivo, mouse; details: non-polyp part of small intestine mucosa, Min mice, 1000 ppm in feed, GAPDH-normalised, control group = 1.00, n=3
Procedure: as §1, §2, §3, §4, §5

[4] = tested on: PCNA antibody-positive cells in polyp part of mouse small intestine mucosa; experiment: Cell proliferation ability in polyp part of intestinal mucosa (PCNA immunostaining); format: in vivo; details: Min mice, 1000 ppm in feed, n = 14 (control group 71.26)
Procedure: The formalin-fixed slices embedded in paraffin prepared from the polyp part of mouse small intestine mucosa of the control group and of the 1000 ppm test substance-administering group being excised in Test Example 1 were dipped in xylene for five minutes×three times for the purpose of deparaffinization and were dipped in 99.5% alcohol for five minutes×three times to enhance the hydrophilicity followed by dipping into distilled water for 10 minutes. After that, the slices were dipped into a methanol solution containing 0.3% of hydrogen peroxide to conduct a deactivation treatment for the endogenous peroxidase. Further, 1 mL of a 0.3% Triton [Registered trade mark] X-100 solution containing 2% of horse serum (a phosphate-buffered saline (PBS) containing 0.3% of Triton) followed by blocking for 30 minutes.
To the slices was added an anti-mouse proliferating cell nuclear antigen (PCNA) antibody (Calbiochem [Registered trade mark]) diluted to an extent of 100 times and a primary antibody response was conducted overnight at 4° C. […] The ratio of the PCNA antibody-positive cell numbers to the total cell numbers in the microscopic field in each group was also calculated. […]

[5] = 500 ppm in feed for eight weeks
[6] = 500 ppm in feed for eight weeks, n = 9
[7] = 1000 ppm in feed for eight weeks
[8] = 1000 ppm in feed for eight weeks, n = 8

CN1C(=O)NC(=O)C1O (stereo not shown) [Compound 21, 5-Hydroxy-1-methylhydantoin]
Ratio of expression quantity of cell proliferation-associated factor c-Myc (c-Myc; non-polyp part of small intestine mucosa): 0.25 | Ratio of expression quantity of cell proliferation-associated factor c-Myc (c-Myc; polyp part of small intestine mucosa): 0.39 | Difference in the feed and in the body weight among the groups during the administration period [1]: No significant difference | Abnormal variation in blood pressure, pulse rate, body temperature, hematological test, blood biochemical test and urinary test [2]: no abnormal variation suspected to be related to the present compound | Clinical symptoms suspected to be related to the compound [2]: no clinical symptom suspected to be related to the present compound | Decrease of polyp numbers in the middle segment of small intestine as compared with the control group [3, 5]: about 37% | Decrease of total numbers of polyps as compared with the control group [3, 5]: about 17% | Number of intestinal polyp, colon [3, 6]: 1.00 | Number of intestinal polyp, small intestine distal segment [3, 6]: 27.00 | Number of intestinal polyp, small intestine middle segment [3, 6]: 7.33 | Number of intestinal polyp, small intestine proximal segment [3, 6]: 3.89 | Number of intestinal polyp, total [3, 6]: 39.22 | Decrease of polyp numbers in the middle segment of small intestine as compared with the control group [3, 7]: ~29% | Decrease of total numbers of polyps as compared with the control group [3, 7]: about 17% | Number of intestinal polyp, colon [3, 8]: 0.38 | Number of intestinal polyp, small intestine distal segment [3, 8]: 25.63 | Number of intestinal polyp, small intestine middle segment [3, 8]: 8.25 | Number of intestinal polyp, small intestine proximal segment [3, 8]: 5.13 | Number of intestinal polyp, total [3, 8]: 39.38 | Ratio of expression quantity of cell proliferation-associated factor CDK4 (CDK4): 0.47 | Ratio of expression quantity of cell proliferation-associated factor Cyclin D1 (cyclin D1): 0.27 | Ratio of the PCNA antibody-positive cell numbers to the total cell numbers [4]: 58.40%

Reference: patent US11464762B2, “Carcinogenesis inhibitor” (NATIONAL CANCER CENTER, priority 2017, dated 2022)
